Assay results published in paper PMC7913881, “The First Step of Biodegradation of 7-Hydroxycoumarin in Pseudomonas mandelii 7HK4 Depends on an Alcohol Dehydrogenase-Type Enzyme” (International Journal of Molecular Sciences, 2021).

Assays:
[1] = target: T1, (UniProt A0A890JDX9); assay: spectrophotometric NADPH oxidation kinetics with purified enzyme; substrate and substrate inhibitor; format: biochemical, Pseudomonas mandelii
T1 construct: gene hcdE; recombinant C-terminally His6-tagged protein
Text: spectrophotometric NADPH oxidation kinetics with purified enzyme; substrate and substrate inhibitor on HcdE | 7-hydroxycoumarin was likely a pseudo-competitive inhibitor characterized by the inhibition constant Ki

[2] = test system: NC(=O)C1=CN([C@@H]2O[C@H](COP(=O)(O)OP(=O)(O)OC[C@H]3O[C@@H](n4cnc5c(N)ncnc54)[C@H](OP(=O)(O)O)[C@@H]3O)[C@@H](O)[C@H]2O)C=CC1; assay: purified protein; settings: varied: cofactor

T1 sequence (A0A890JDX9 1-376 limits assumed): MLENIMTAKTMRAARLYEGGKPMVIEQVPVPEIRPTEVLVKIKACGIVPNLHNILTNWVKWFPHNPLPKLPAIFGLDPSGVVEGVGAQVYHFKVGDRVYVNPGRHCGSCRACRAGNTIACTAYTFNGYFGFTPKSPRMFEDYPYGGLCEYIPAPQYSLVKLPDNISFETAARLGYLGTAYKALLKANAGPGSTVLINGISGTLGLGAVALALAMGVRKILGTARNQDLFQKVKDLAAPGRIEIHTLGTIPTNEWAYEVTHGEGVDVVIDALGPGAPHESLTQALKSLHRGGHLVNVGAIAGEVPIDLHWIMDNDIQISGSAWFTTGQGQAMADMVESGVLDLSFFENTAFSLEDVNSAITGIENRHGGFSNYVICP

Question: Which Ki [1] does the source give for O=c1ccc2ccc(O)cc2o1 [compound 1, 7-hydroxycoumarin] here?
Answer: 22 mM

Question: How did the Km [2] turn out when HcdE (Pseudomonas mandelii) was run?
Answer: 20 µM
